This test deals with 3E7 Fab. Briefly: Dissociation of [125I]Fab from fusion phage clones. It counts as binding, mouse. Further details: key to Dissociation t1/2 (minutes): **: indicates that initial binding was not detected. The settings on record: [125I]Fab dissociating from the phage clone bearing the peptide; 4° C; excess free YGGFL added. The method, then: An assay employing the anti-phage antisera was developed to determine the rate of dissociation of [^125 I]Fab from individual phage isolates. Individual fusion phase isolates were amplified in a 5 ml liquid culture of E. coli K91 cells and phage particles were isolated and quantitated as described above. In 1 ml microtiter minitubes, 25 μl of TBS containing approximately 2×10^9 infectious phage particles were incubated with […] of TBS/0.1% BSA containing 40,000 cpm of [^125 I]Fab for 10 minutes. Anti-phage antisera (25 μl of 1:1000 dilution in PBS/0.1%BSA) and staph A particles coated with goat anti-mouse IgG (25 μl of Tachisorb diluted eight-fold in TBS/0.1% BSA) were then added. Dissociation was initiated after 2 hours further incubation at 4° C. […] Filter bound radioactivity was determined by gamma counting. […] The time corresponding to a 50% reduction of initially bound [^125 I]Fab was determined by linear regression of a semi-logarithmic plot of amount bound vs. time.
For the substance “YGAFFQ: hexapeptide isolated with 50 pM Fab”, the “Dissociation t1/2” value stood at 13.4 min.

As for “YGAFGG: hexapeptide isolated with 50 pM Fab”, the “Dissociation t1/2” value was found to be 5.0 min.

On to “YGFWSN: hexapeptide isolated with 50 pM Fab”, for which the “Dissociation t1/2” value was found to be 7.4 min.

On to “YGGFLT: hexapeptide isolated with 50 pM Fab”, for which the “Dissociation t1/2” value was 17.9 min.

For “YGGFSP: hexapeptide isolated with 50 pM Fab”, the “Dissociation t1/2 (minutes)” value is “**”.

Take “YGGLRH: hexapeptide isolated with 50 pM Fab”: the “Dissociation t1/2 (minutes)” value is “**”.

Consider “YGGLSM: hexapeptide isolated with 50 pM Fab”, for which the “Dissociation t1/2” value was 0.96 min.

Take “YGGLVR: hexapeptide isolated with 50 pM Fab”: the “Dissociation t1/2” value amounted to 0.50 min.

As to “YGRFFH: hexapeptide isolated with 50 pM Fab”, the “Dissociation t1/2 (minutes)” value is “**”.

Regarding “YGSFMA: hexapeptide isolated with 50 pM Fab”, the “Dissociation t1/2 (minutes)” value is listed as “**”.

As for “YGSFSL: hexapeptide isolated with 50 pM Fab”, the “Dissociation t1/2” value turned out to be 0.43 min.

For the substance “YGVFSR: hexapeptide isolated with 50 pM Fab”, the “Dissociation t1/2” value was found to be 2.8 min.

For “YGYWSL: hexapeptide isolated with 50 pM Fab”, the “Dissociation t1/2” value came out at 15.6 min.

Values taken from US5432018A, “Peptide library and screening systems” (Affymax Technologies N.V., priority 1991, dated 1995).
